From article doi:10.1101/2024.05.17.594634, “Protein Structure Inspired Drug Discovery” (bioRxiv, 2024)

How the values were obtained:
[1] = tested on: MDA-MB-231 breast cancer cells; assay: Eight-day colony formation assay, MDA-MB-231; assay type: cell-based, human; details: for efficacy ratio (cancer cell colonies to bone marrow colonies at 8 days): MDAMB231
Method: (§1) We sought to identify compounds that would inhibit the growth of cancer cells, but that also did so selectively. Inhibition of cancer cell growth is a highly sought after attribute of anticancer agents. This was assessed by measuring the ability of a compound to inhibit cell growth in eight-day colony formation assays, examining concentrations ranging from 0.017 to 40 μM. Breast, colon, lung and prostate cancer are four of the most common causes of cancer in the United States, are major causes of cancer cell death, and were examined.[64] Two cell lines for each cancer type were assessed: A549 (adenocarcinoma) and H226 (squamous carcinoma) for lung, MCF-7 (estrogen receptor [ER] positive) and MDA-MB-231 (ER negative) for breast, LNCaP (androgen receptor [AR] positive) and PC3-M (AR negative) for prostate, and HCT116 (wild type p53, mutated KRAS) and HT29 (p53 mutant) for colon.[65]
(§2) In considering effect on cancer cells, for each compound and each cell line tested we calculated the efficacy ratio, i.e., efficacy ratio = (percent of remaining cancer cell colonies)/(percent of remaining bone marrow colonies), at 8 days after treatment with 40 μM compound (S4 Fig). We considered those with an efficacy ratio below 0.5 as active and at least partially selective. The stringency of this is highlighted by considering the effect of 5FU on colon cancer, where it is frequently used clinically in proven curative settings, as well as proven life prolonging settings.[70, 71] […] Even at 5.7 μM, where 5FU is toxic to bone marrow, with hematopoietic colony formation at 38% of control, the efficacy ratio for HT29 cells has only dropped to 0.52. […] It can be seen that compounds segregate to protein sites. Specifically, of 10 compounds meeting this activity criteria (i.e., efficacy ratio <0.5), 3 were directed at the Dxr2 site, 3 at FolC2, 2 at FolC1, 1 at Dxr1 and 1 at TYLT.
(§3) Eight-day colony formation assays of cancer cells were performed as described by us.[87] Briefly, 0.5–1.0 × 10^3 cells were seeded into a 12 well plate, after 24 hours compound added and eight days later colonies (of 3 or more cells) were scored after trypan blue staining. Conditions were in replicates of N = 2. All compounds were stored under desiccated conditions in a sealed container at minus 20°C upon arrival. One day prior to use, they were placed into DMSO, stored at […] as stock solutions, thawed just prior to use, and not reused.

[2] = tested on: human melanoma SK-MEL-5 cells; assay: Eight-day colony formation assay, SK-MEL-5; assay type: cell-based
Method: We next evaluated the effect of Dxr2-017 on human melanoma M14 and SK-MEL-5 cell lines in eight-day assays (Fig 8A).
Fig 8. Dxr2-017 inhibits melanoma cell growth through induction of anoikis. (A) Inhibition of melanoma cell growth. Cells were treated with different concentrations of Dxr2-017 and formation of colonies at eight days depicted. Data are expressed as percent of untreated control and are the mean ± SEM (N=3 replicates) of a single experiment. (B) No effect on cycle progression. M14 and SK-MEL-5 cells were treated for 8 days with 20 and 50 nM Dxr2-017, respectively, and phase of cell cycle determined by flow cytometry. Data are the mean ± SEM (N=3). *denotes P-value ≤0.05. (C) Transition to floating cells. Cells were treated for three days with different Dxr2-017 concentrations. Depicted are representative light photomicrographs at 20X; scale bar is150 μm. Blue and green arrows denote adherent and floating cells, respectively. (D) Cleaved caspase 3 is induced in floating cells. […]
Eight-day colony formation assays of cancer cells were performed as described by us.[87] Briefly, 0.5–1.0 × 10^3 cells were seeded into a 12 well plate, after 24 hours compound added and eight days later colonies (of 3 or more cells) were scored after trypan blue staining. […]

[3] = tested on: human breast, prostate, colon and lung cancer cells; assay: Eight-day colony formation assays, summary across the cancer cell line panel; assay type: cell-based
Method: as §1, §2, §3

SK-MEL-5 cells = assay: Western blot for cleaved caspase 3, SK-MEL-5; assay type: cell-based, human; details: 3 days, up to 20 μM
Method: Fig 8. Dxr2-017 inhibits melanoma cell growth through induction of anoikis. (A) Inhibition of melanoma cell growth. Cells were treated with different concentrations of Dxr2-017 and formation of colonies at eight days depicted. Data are expressed as percent of untreated control and are the mean ± SEM (N=3 replicates) of a single experiment. (B) No effect on cycle progression. M14 and SK-MEL-5 cells were treated for 8 days with 20 and 50 nM Dxr2-017, respectively, and phase of cell cycle determined by flow cytometry. Data are the mean ± SEM (N=3). *denotes P-value ≤0.05. (C) Transition to floating cells. Cells were treated for three days with different Dxr2-017 concentrations. Depicted are representative light photomicrographs at 20X; scale bar is150 μm. Blue and green arrows denote adherent and floating cells, respectively. (D) Cleaved caspase 3 is induced in floating cells. Cells were treated for 3 days, cell lysate from only adherent cells, or from adherent and floating cells combined, was probed by Western blot for cleaved caspase 3. All experiments were repeated at separate times, yielding similar results.
We then assessed whether Dxr2-017 was inducing apoptosis. […] These findings raised the possibility that Dxr2-017 was inducing anoikis, a process in which programmed cell death occurs upon cell detachment.[72, 73] […]

In the case of c1ccc2sc(-c3ccc(CNc4ccc5nnnn5n4)o3)nc2c1 [Dxr2-017], the “efficacy ratio (cancer cell colonies to bone marrow colonies at 8 days)” value ([1]; 5.7 μM) is reported as 0.05, the “efficacy ratio (cancer cell colonies to bone marrow colonies at 8 days)” value ([1]; 40 μM) is reported as 0.00 and the inhibition at 0.12 µM ([1]; Homo sapiens, 0.12 μM, MDA-MB-231, mean ± SD, read-out: inhibition of colony formation compared to control) is reported as 81.7 ± 15.5%. The IC50 ([2]; Homo sapiens, 192 h, SK-MEL-5, eight-day assay, mean ± SEM) was 51.7 ± 16.4 nM, the “fold efficacy versus bone marrow stem cells” value ([2]; SK-MEL-5 IC50 compared to 40 μM eight-day bone marrow treatment) was greater than 750 fold and the “relative activity for a given compound, % (% of cells tested where ratio is <0.5)” value ([3]; 5.7 μM) was 75%. For the same molecule, the “mean efficacy ratio for cells where the efficacy ratio is below 0.5” value ([3]; 5.7 μM, mean ± SEM) was 0.25 ± 0.091, the “relative activity for a given compound, % (% of cells tested where ratio is <0.5)” value ([3]; 40 μM) was 100% and the “mean efficacy ratio for cells/compounds where the efficacy ratio is below 0.5” value ([3]; 40 μM, mean ± SEM) was 0.03 ± 0.01. For the same molecule, the “cleaved caspase 3, adherent cells only” value (SK-MEL-5 cells) was “did not detect any induction of cleaved caspase 3” and the “cleaved caspase 3, floating and adherent cells combined” value (SK-MEL-5 cells) was “clear formation”.
